According to patent US20090298077A1, “ASSAY FOR MEASUREMENT OF APURINIC/APYRIMIDINIC (AP) SITES AND FOR SCREENING AP-SITE REACTIVE COMPOUNDS” (priority 2006, published 2009):
“And” between values parts separate entries of the source, which are not always exact repeats. Identical values can stand only once.

Legend:
Type in all cases: binding, calf
AP-DNA [1] = experiment: FARP AP-site assay: screening of MX-like compounds in competition with FARP
Experimental: (§1) 100 μL of 5 μM FARP in phosphate buffer (10 mM, pH 7.0) was added to 200 μL phosphate buffer (10 mM, pH 7.0) containing 10 μg of DNA extracted from cells, individual AP-DNA standard (10, 20, 40, 80, 160, 320, and 640 nM AP), and blank AP-DNA control, respectively. After vortexing, the reaction was allowed to proceed at room temperature for 15 min. At the end of the reaction 200 μL ammonium acetate (7.5M) and 1000 μL ice-cold ethanol (100%) were added. The solution was mixed gently by inverting the tube before keeping it at −20° C. for 30 min. Each tube was centrifuged at 4° C. and 12,000 g for 10 min. The supernatant was poured out carefully so that no loss of FARP-AP-DNA took place. 1200 μL of ice-cold ethanol (70%) was added to each tube to remove the free FARP by centrifugation at 4° C. and 12,000 g for 10 min. This washing step with 70% ice-cold ethanol was repeated two more times. After discarding the supernatant, the FARP-AP-DNA precipitate in the tube was dried at room temperature for 30 min. in a venting hood. The FARP-AP-DNA precipitate was hydrated and resuspended in 200 μL of phosphate buffer (10 mM, pH 9.0) at room temperature for 1 hr. The fluorescence intensity of the resultant FARP-AP-DNA solution was measured by the FluoroMax-2 spectrofluorometer. A calibration curve could be constructed by plotting the fluorescence intensity versus the concentration of AP sites.
One important application of the FARP AP-site assay developed is to screen MX-like compounds for their reactivity to AP site based on known chemical structures. In this work, four compounds with aminooxy or hydrazone group (i.e., MXL1O1, MXLIO2, MXLI 03, and MXL 104) together with MX were tested. The detail experiment included mixing equal concentration and volume of each individual test compound with FARP (50 μM in 100 μL of 10 mM phosphate buffer at pH 7.0) before reacting with 200 µL of 100 nM AP-DNA. The remaining experimental procedures were the same as described in the Experimental section. The data of fluorescence intensity reduced by MX and MX-like compounds were given in Table XI and the fluorescence intensity of the test compounds were compared in FIG. 19.

AP-DNA [2] = experiment: Competitive reactions between FARP and MX with AP-DNA; settings: for Fluorescence Intensity/10^4: 125 nM AP-DNA
Experimental: as §1
Since aminooxy and hydrazone nucleophiles can react with aldehyde group of AP site and form condensation product, it is desirable to know when MX and FARP compete with AP-DNA, which compound has greater reactivity toward AP-DNA. The finding of this experiment will lay the foundation of a screening assay for MX-like compounds.
In the study, the amount of AP-DNA used were 125 nM in 200 μL of 10 mM phosphate buffer at pH 7.0 and the ratios of [FARP]/[MX] were as follows: 50 μM FARP/0 μM, 50.0 μM/5 μM, 50.0 μM/12.5 μM, 50.0 μM/16.7 μM, 50.0 μM/25.0 μM 50.0 μM/22.7 μM, 50.0 μM/25 μM, 50.0 μM/50.0 μM, 50.0 μM/100.0 μM, 50.0 μM/200.0 μM, 50.0 μM/500.0 μM in 100 μL of 10 mM phosphate buffer at pH 7.0. Because MX and FARP were competing for a limited amount of AP-DNA, and only FARP-AP-DNA was fluorescent, the reduced fluorescence intensity reflected the amount of MX binding to the AP sites. […] This is probably due to the molecular size of MX, which allows it to diffuse to faster to the AP-DNA than FARP molecule in aqueous solution.

AP-DNA [3] = experiment: Reversibility study of the condensation reaction between FARP / MX and AP-DNA; settings: for Fluorescence Intensity, FARP Reaction Followed MX Reaction: FARP-AP-DNA incubated with 50 μM MX; for Fluorescence Intensity, MX Replacement Followed by FARP Replacement: MX-AP-DNA incubated with 50 μM FARP
Experimental: It was known that the aldehyde group of an AP site could easily condense with aminooxy or hydrazone nucleophiles. However, the reversibility of the reaction was not clear, especially in the presence of another competing nucleophile. To clarify the above, two experiments were designed and carried out as follows: (a) FARP (50 μM in 100 μL of 10 mM phosphate buffer at pH 7.0) reacted with AP-DNA (125 nM in 200 μL of 10 mM phosphate buffer at pH 7.0) for 1 hr, after washing the condensation product (FARP-AP-DNA) incubated with MX (50 μM in 100 μL of 10 mM phosphate buffer at pH 7.0) for various time periods; and (b) MX (50 μM in 100 μL of 10 mM phosphate buffer at pH 7.0) reacted with AP-DNA (125 nM, 200 μL) for 1 hr, after washing the condensation product (MX-AP-DNA) incubated with FARP (50 μM in 100 μL of 10 mM phosphate buffer at pH 7.0) for various time periods.

AP-DNA [4] = experiment: Competitive reactions between FARP and MX with AP-DNA; settings: [FARP]/[MX] 50.0 μM/20.0 μM, 125 nM AP-DNA
[5] = test compound mixed with FARP at equal concentration and volume (50 μM in 100 μL, pH 7.0), 100 nM AP-DNA

SMILES: CON [MX, methoxyamine]
- Normalized Fluorescence Intensity % (AP-DNA [1]; relative to FARP alone = 100, equal concentration of test compound and FARP, 100 nM AP-DNA): 37.3%
- reactivity toward AP-DNA compared with FARP (AP-DNA [1]; result in words): higher reactivity than FARP
- Fluorescence Intensity Individual Measurement (AP-DNA [1]; [5]): 6543.0 and 6137.0
- Fluorescence Intensity Mean (AP-DNA [1]; [5]): 6340.0
- Fluorescence Intensity/10^4 (AP-DNA [2]; [FARP]/[MX] 50.0 μM/5.0 μM): 8.9453
- Fluorescence Intensity/10^4 (AP-DNA [2]; [FARP]/[MX] 50.0 μM/12.5 μM): 8.3567
- Fluorescence Intensity/10^4 (AP-DNA [2]; [FARP]/[MX] 50.0 μM/16.7 μM): 7.6453
- Fluorescence Intensity/10^4 (AP-DNA [2]; [FARP]/[MX] 50.0 μM/22.7 μM): 3.8976
- Fluorescence Intensity/10^4 (AP-DNA [2]; [FARP]/[MX] 50.0 μM/25.0 μM): 3.2452
- Fluorescence Intensity/10^4 (AP-DNA [2]; [FARP]/[MX] 50.0 μM/50.0 μM): 2.587
- Fluorescence Intensity/10^4 (AP-DNA [2]; [FARP]/[MX] 50.0 μM/100.0 μM): 2.348
- Fluorescence Intensity/10^4 (AP-DNA [2]; [FARP]/[MX] 50.0 μM/200.0 μM): 2.2876
- Fluorescence Intensity/10^4 (AP-DNA [2]; [FARP]/[MX] 50.0 μM/500.0 μM): 2.0896
- affinity toward AP-DNA compared with FARP (AP-DNA [2]; result in words): greater affinity toward APDNA than that of FARP
- Fluorescence Intensity, FARP Reaction Followed MX Reaction (AP-DNA [3]; replacement time 10 min): 11,003
- Fluorescence Intensity, FARP Reaction Followed MX Reaction (AP-DNA [3]; replacement time 20 min): 11,289
- Fluorescence Intensity, FARP Reaction Followed MX Reaction (AP-DNA [3]; replacement time 30 min): 10,759
- Fluorescence Intensity, FARP Reaction Followed MX Reaction (AP-DNA [3]; replacement time 40 min): 11,193
- Fluorescence Intensity, FARP Reaction Followed MX Reaction (AP-DNA [3]; replacement time 50 min): 11,226
- Fluorescence Intensity, FARP Reaction Followed MX Reaction (AP-DNA [3]; replacement time 60 min): 11,139
- Fluorescence Intensity, FARP Reaction Followed MX Reaction (AP-DNA [3]; replacement time 90 min): 11,112
- Fluorescence Intensity, FARP Reaction Followed MX Reaction (AP-DNA [3]; replacement time 120 min): 11,145
- Fluorescence Intensity, MX Replacement Followed by FARP Replacement (AP-DNA [3]; replacement time 10 min): 3,366
- Fluorescence Intensity, MX Replacement Followed by FARP Replacement (AP-DNA [3]; replacement time 20 min): 3,225
- Fluorescence Intensity, MX Replacement Followed by FARP Replacement (AP-DNA [3]; replacement time 30 min): 3,557
- Fluorescence Intensity, MX Replacement Followed by FARP Replacement (AP-DNA [3]; replacement time 40 min): 3,410
- Fluorescence Intensity, MX Replacement Followed by FARP Replacement (AP-DNA [3]; replacement time 50 min): 3,321
- Fluorescence Intensity, MX Replacement Followed by FARP Replacement (AP-DNA [3]; replacement time 60 min): 3,192
- Fluorescence Intensity, MX Replacement Followed by FARP Replacement (AP-DNA [3]; replacement time 90 min): 3,202
- Fluorescence Intensity, MX Replacement Followed by FARP Replacement (AP-DNA [3]; replacement time 120 min): 3,081
- reversibility of the condensation reaction with aldehyde group of AP-DNA (AP-DNA [3]; result in words, under the assay conditions): irreversible
- Fluorescence Intensity/10^4 (AP-DNA [4]): 5.6423
